Data set [1] has as its target T1, Phosphatidylinositol 4,5-bisphosphate 3-kinase catalytic subunit delta isoform (Homo sapiens, UniProt O00329).
T1 sequence (O00329 whole entry): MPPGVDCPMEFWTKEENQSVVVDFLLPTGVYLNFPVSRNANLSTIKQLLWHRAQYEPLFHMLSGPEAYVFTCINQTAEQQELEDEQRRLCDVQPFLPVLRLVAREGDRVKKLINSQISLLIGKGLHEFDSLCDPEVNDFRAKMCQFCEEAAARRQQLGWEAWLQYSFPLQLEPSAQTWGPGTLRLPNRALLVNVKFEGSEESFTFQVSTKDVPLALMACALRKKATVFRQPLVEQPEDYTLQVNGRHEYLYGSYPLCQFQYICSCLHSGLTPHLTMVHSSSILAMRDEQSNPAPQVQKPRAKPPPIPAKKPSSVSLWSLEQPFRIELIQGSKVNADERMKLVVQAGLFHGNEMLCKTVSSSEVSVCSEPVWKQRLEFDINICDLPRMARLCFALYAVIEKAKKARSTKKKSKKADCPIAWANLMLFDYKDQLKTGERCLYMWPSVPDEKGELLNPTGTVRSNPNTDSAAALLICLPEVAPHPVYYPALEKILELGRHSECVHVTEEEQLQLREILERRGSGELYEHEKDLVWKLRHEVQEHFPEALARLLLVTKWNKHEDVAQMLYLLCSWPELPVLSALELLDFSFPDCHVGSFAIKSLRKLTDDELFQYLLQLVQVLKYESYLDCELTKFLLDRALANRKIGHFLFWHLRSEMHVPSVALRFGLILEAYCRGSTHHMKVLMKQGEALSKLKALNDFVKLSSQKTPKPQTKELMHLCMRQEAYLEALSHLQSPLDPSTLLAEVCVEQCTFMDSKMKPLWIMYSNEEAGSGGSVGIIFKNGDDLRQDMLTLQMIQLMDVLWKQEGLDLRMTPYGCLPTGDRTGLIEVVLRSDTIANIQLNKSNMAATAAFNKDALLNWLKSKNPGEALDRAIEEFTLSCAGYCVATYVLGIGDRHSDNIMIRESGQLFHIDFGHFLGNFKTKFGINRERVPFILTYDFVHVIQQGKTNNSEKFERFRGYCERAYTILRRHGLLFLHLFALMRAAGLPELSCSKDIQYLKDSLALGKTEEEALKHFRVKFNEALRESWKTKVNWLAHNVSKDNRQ
The experiment in a line: Inhibition of PI3Kdelta (unknown origin) using PIP2 as substrate measured after 30 mins by HTRF assay.

Data set [2] has as its system NAMALVA. The data set is described as follows: Antiproliferative activity against human NAMALWA cells measured after 72 hrs by alamar blue assay. It counts as functional, cell-based.
For data set [3], the system named is MOLT-4. The data set is described as follows: Antiproliferative activity against human MOLT4 cells measured after 72 hrs by alamar blue assay. The format is functional, cell-based. As to conditions: MOLT-4, 72 h.
The subject of data set [4] is SU-DHL-6. The data set is described as follows: Antiproliferative activity against human SUDHL6 cells measured after 72 hrs by alamar blue assay. It counts as functional, cell-based. As to conditions: SU-DHL-6, 72 h.
Data set [5] deals with T2, Voltage-gated inwardly rectifying potassium channel KCNH2 (Homo sapiens, UniProt Q12809). The data set is described as follows: (§1) Inhibition of human ERG at 40 uM relative to control. The following applies: 40 µM.
T2 sequence (Q12809 whole entry): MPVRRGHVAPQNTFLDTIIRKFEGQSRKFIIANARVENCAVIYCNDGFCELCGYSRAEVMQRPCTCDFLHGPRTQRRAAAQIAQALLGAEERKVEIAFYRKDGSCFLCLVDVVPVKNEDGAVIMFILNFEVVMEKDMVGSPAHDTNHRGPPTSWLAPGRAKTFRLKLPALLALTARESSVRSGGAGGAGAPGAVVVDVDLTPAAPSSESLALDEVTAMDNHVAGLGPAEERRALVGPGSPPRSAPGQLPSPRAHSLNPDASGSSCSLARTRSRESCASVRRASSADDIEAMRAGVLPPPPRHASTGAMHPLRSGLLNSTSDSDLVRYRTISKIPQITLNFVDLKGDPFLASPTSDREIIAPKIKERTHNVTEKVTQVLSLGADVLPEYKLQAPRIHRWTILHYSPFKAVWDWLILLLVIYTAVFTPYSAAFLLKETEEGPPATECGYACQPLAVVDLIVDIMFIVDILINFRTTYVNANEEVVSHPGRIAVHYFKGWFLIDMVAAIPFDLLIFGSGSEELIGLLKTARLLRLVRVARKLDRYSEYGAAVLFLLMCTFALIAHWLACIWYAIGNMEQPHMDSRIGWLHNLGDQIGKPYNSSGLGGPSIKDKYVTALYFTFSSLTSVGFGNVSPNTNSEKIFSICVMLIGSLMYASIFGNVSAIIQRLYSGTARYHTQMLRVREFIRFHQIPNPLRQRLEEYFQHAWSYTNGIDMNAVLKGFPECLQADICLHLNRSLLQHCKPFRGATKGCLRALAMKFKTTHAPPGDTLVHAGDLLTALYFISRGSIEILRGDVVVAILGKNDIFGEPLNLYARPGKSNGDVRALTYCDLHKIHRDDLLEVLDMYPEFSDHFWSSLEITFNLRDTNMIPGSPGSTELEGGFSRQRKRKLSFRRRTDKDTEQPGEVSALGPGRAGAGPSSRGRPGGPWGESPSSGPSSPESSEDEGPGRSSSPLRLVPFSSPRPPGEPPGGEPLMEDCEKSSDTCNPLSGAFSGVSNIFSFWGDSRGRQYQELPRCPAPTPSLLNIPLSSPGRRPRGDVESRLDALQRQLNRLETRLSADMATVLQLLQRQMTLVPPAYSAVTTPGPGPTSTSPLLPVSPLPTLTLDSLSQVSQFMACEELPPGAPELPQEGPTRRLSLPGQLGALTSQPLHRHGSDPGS
A short description of data set [6]: Antiproliferative activity against human WSU-DLCL2 cells measured after 72 hrs by alamar blue assay. The format is functional, cell-based. The following applies: WSUDLCL2, 72 h.
The target in data set [7] is Phosphatidylinositol 4,5-bisphosphate 3-kinase catalytic subunit beta isoform (Homo sapiens, UniProt P42338). The data set is described as follows: Inhibition of PI3Kbeta (unknown origin) using PIP2 as substrate measured after 30 mins by HTRF assay.
Chain of Phosphatidylinositol 4,5-bisphosphate 3-kinase catalytic subunit beta isoform (P42338 whole entry, canonical isoform): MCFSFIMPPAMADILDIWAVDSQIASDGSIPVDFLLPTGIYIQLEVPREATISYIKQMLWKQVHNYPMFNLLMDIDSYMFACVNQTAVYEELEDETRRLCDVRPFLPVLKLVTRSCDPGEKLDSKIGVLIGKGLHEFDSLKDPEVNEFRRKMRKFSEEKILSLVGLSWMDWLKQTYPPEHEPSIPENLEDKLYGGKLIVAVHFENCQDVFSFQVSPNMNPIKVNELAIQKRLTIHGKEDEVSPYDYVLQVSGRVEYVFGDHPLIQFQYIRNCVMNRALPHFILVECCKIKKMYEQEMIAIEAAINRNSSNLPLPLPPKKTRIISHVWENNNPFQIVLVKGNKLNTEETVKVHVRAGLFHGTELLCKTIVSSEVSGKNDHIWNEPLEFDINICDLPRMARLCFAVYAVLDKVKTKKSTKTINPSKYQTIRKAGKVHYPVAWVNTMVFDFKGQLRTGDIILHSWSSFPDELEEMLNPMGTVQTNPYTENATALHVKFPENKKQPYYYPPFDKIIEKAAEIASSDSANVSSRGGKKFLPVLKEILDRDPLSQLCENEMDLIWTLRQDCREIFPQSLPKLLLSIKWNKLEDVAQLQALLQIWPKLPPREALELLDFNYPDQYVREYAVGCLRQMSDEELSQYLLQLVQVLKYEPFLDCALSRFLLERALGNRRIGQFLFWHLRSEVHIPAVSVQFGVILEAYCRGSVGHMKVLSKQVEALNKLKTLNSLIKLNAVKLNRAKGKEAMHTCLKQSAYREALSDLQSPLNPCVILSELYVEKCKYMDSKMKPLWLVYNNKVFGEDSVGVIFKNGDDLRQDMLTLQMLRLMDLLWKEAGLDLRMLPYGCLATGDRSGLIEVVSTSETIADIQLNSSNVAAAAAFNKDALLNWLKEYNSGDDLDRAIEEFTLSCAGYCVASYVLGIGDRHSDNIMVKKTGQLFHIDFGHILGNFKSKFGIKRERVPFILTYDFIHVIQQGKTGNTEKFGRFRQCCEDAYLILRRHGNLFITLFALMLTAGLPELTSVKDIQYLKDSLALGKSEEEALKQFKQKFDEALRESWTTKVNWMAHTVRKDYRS
For data set [8], the system named is SU-DHL10. The experiment in a line: Antiproliferative activity against human SU-DHL10 cells measured after 72 hrs by alamar blue assay. The format is functional, cell-based. The following applies: SU-DHL10, 72 h.
Data set [9] addresses T3, Phosphatidylinositol 4,5-bisphosphate 3-kinase catalytic subunit alpha isoform (Homo sapiens, UniProt P42336). The experiment in a line: Inhibition of PI3Kalpha (unknown origin) using PIP2 as substrate measured after 30 mins by HTRF assay.
The test system of data set [10] is KARPAS-422. The data set is described as follows: Antiproliferative activity against human KARPAS422 cells measured after 72 hrs by alamar blue assay. The format is functional, cell-based. As to conditions: KARPAS-422, 72 h.
Data set [11] has as its target T2, Voltage-gated inwardly rectifying potassium channel KCNH2. The experiment in a line: Inhibition of human ERG.
The target in data set [12] is T4, Phosphatidylinositol 4,5-bisphosphate 3-kinase catalytic subunit gamma isoform (Homo sapiens, UniProt P48736). The data set is described as follows: Inhibition of PI3Kgamma (unknown origin) using PIP2 as substrate measured after 30 mins by HTRF assay.
T4 sequence (P48736 whole entry, canonical isoform): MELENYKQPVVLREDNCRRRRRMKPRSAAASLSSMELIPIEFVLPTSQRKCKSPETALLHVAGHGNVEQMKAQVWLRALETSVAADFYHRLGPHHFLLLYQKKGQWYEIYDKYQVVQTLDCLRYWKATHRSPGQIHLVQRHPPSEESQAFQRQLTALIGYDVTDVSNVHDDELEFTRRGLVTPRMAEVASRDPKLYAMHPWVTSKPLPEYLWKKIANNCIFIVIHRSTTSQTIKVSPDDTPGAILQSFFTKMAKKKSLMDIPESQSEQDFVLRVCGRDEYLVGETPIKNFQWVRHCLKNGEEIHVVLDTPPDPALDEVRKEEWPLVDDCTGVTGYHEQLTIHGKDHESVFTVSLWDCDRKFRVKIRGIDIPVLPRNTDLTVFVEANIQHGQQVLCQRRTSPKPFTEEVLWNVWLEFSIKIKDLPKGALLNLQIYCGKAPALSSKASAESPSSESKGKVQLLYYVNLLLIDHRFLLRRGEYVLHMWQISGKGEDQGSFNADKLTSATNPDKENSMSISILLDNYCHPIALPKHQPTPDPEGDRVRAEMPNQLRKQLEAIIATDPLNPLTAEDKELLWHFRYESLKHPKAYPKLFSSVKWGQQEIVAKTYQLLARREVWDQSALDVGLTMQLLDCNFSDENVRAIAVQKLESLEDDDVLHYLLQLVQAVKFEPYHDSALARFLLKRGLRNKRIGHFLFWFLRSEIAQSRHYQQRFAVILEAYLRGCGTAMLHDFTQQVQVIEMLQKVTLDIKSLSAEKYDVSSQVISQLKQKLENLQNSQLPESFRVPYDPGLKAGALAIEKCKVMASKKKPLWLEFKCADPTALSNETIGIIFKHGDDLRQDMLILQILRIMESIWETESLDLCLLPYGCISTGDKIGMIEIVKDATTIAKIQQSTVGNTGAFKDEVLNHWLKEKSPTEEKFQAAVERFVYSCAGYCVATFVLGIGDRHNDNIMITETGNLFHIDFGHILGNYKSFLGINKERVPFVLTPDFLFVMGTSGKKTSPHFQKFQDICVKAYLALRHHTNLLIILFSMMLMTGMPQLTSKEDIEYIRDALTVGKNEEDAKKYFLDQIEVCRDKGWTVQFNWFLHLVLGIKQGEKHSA
Data set [13] deals with SU-DHL-1. The data set is described as follows: Antiproliferative activity against human SU-DHL1 cells measured after 72 hrs by alamar blue assay. The format is functional, cell-based. As to conditions: SU-DHL-1, 72 h.
For data set [14], the system named is Pfeiffer. The data set is described as follows: Antiproliferative activity against human Pfeiffer cells measured after 72 hrs by alamar blue assay. It counts as functional, cell-based.
For data set [15], the system named is HT. The experiment in a line: Antiproliferative activity against human HT cells measured after 72 hrs by alamar blue assay. The format is functional, cell-based.
The test system of data set [16] is SUD4. The experiment in a line: Antiproliferative activity against human SU-DHL4 cells measured after 72 hrs by alamar blue assay. It counts as functional, cell-based. The following applies: SU-DHL-4, 72 h.
Data set [17] deals with T5, Phosphatidylinositol 4,5-bisphosphate 3-kinase catalytic subunit delta isoform (Homo sapiens) (UniProt O00329).
T5 sequence (whole entry): T1 sequence (O00329 whole entry)
The experiment in a line: Inhibition of PI3Kdelta-mediated Akt phosphorylation at […] in human SUDHL6 cells measured after 1 hr by Western blot analysis. It counts as cell-based.

A short description of data set [18]: Half life in Sprague-Dawley rat at 10 mg/kg, po. It counts as ADME, organism-based. As to conditions: in vivo.
The nature of data set [19]: AUClast in Sprague-Dawley rat at 10 mg/kg, po. The format is ADME, organism-based. Also noted: dose 10 mg/kg, time 0 - last, route oral. As to conditions: in vivo.
A short description of data set [20]: AUC (infinity) in Sprague-Dawley rat at 10 mg/kg, po. The following applies: in vivo. Further details: dose 10 mg/kg, route oral, time infinity. The format is ADME, organism-based.
Data set [21] concerns Rattus norvegicus. The experiment in a line: AUC (infinity) in Sprague-Dawley rat at 5 mg/kg, iv. The format is ADME, organism-based. Also noted: dose 5 mg/kg, time infinity, route intravenous. As to conditions: in vivo.
A short description of data set [22]: Volume of distribution in Sprague-Dawley rat at 5 mg/kg, iv. The following applies: in vivo. It counts as ADME, organism-based.
Data set [23] is described as follows: AUClast in Sprague-Dawley rat at 5 mg/kg, iv. As to conditions: in vivo. Further details: dose 5 mg/kg, time 0 - last, route intravenous. The format is ADME, organism-based.
In data set [24] the target is hERG (KCNH2) (Homo sapiens, UniProt Q12809). The description is as §1.
For data set [25], the target named is T5, Phosphatidylinositol 4,5-bisphosphate 3-kinase catalytic subunit delta isoform (Homo sapiens). The experiment in a line: Inhibition of PI3Kdelta-mediated Akt phosphorylation at […] in human MOLT4 cells measured after 1 hr by Western blot analysis. The format is cell-based.
The target is the same in data set [26]. The experiment in a line: Inhibition of PI3Kdelta-mediated S6k1 phosphorylation at T389 in human MOLT4 cells measured after 1 hr by Western blot analysis. It counts as cell-based.
Data set [27] shares this target. The experiment in a line: Inhibition of PI3Kdelta-mediated S6k1 phosphorylation at T389 in human SUDHL6 cells measured after 1 hr by Western blot analysis. It counts as cell-based.
A short description of data set [28]: Oral bioavailability in Sprague-Dawley rat at 10 mg/kg. It counts as ADME, organism-based. As to conditions: in vivo.
Data set [29] in a line: Half life in Sprague-Dawley rat at 5 mg/kg, iv. The format is ADME, organism-based. The following applies: in vivo.
For data set [30], the target named is T5, Phosphatidylinositol 4,5-bisphosphate 3-kinase catalytic subunit delta isoform (Homo sapiens). The experiment in a line: Inhibition of PI3Kdelta-mediated Akt phosphorylation in human SUDHL6 cells at 3 nM measured after 1 hr by Western blot analysis. It counts as cell-based.
Data set [31] addresses T4, Phosphatidylinositol 4,5-bisphosphate 3-kinase catalytic subunit gamma isoform. The experiment in a line: Inhibition of PI3Kgamma (unknown origin) using biotinylated PIP2 as substrate after 2 hrs by TR-FRET assay.
Data set [32] addresses T1, Phosphatidylinositol 4,5-bisphosphate 3-kinase catalytic subunit delta isoform. The experiment in a line: Inhibition of PI3Kdelta (unknown origin) using biotinylated PIP2 as substrate after 2 hrs by TR-FRET assay.
Data set [33] has as its target T3, Phosphatidylinositol 4,5-bisphosphate 3-kinase catalytic subunit alpha isoform. The data set is described as follows: Inhibition of PI3Kalpha (unknown origin) using biotinylated PIP2 as substrate after 2 hrs by TR-FRET assay.
The subject of data set [34] is U-937. The experiment in a line: Inhibition of phorbol 12-myristate 13-acetate-induced peroxide production in human U937 cells. The format is functional, cell-based.

Consider four molecules from ChEMBL document CHEMBL4041516, “SAR study of 5-alkynyl substituted quinazolin-4(3H)-ones as phosphoinositide 3-kinase delta (PI3Kδ) inhibitors” (Eur J Med Chem, 2017).

Activity calls are given as the source filed them. The calls are words filed in the database; no cut-off is given here.

T3 sequence (P42336 whole entry, canonical isoform): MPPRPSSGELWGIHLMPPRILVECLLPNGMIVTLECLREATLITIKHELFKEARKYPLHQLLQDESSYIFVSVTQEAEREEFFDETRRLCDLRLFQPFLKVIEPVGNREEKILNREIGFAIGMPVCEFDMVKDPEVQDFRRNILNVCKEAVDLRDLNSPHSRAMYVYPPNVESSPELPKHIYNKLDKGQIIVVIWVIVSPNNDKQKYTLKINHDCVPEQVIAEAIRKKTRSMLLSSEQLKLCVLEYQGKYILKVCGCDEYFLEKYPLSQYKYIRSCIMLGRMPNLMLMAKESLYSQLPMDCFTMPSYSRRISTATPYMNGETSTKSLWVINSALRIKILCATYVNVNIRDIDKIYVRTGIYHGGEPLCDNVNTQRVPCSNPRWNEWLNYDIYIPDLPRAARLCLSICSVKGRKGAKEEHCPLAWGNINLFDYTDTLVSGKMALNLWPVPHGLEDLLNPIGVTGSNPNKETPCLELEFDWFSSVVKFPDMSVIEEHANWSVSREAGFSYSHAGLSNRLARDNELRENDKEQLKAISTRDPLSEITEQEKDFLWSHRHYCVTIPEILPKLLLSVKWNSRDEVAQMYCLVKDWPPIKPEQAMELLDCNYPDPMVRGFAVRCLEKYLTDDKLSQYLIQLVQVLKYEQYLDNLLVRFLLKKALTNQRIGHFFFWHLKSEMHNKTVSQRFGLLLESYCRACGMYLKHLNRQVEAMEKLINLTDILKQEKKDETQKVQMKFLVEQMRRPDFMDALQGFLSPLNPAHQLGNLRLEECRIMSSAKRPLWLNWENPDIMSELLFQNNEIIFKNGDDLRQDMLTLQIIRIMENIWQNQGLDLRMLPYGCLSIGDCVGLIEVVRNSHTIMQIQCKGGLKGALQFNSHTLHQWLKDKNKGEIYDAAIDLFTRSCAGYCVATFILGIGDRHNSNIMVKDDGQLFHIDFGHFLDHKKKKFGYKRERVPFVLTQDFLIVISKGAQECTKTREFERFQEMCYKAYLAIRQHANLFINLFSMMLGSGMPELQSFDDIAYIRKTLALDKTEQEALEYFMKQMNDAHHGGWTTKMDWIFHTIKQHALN

As for `Cc1nc(N)nc(N2CCC[C@H]2c2nc3cccc(C#CCCCC(=O)N4CCCC4)c3c(=O)n2-c2ccccc2)c1C#N`, the IC50 in [1] was 7.1 nM; in [2], 5900 nM; in data set [3] it was 6700 nM; in [4] it was 58.9 nM; in [6], more than 10000 nM; in data set [7], 2020 nM. Also, the IC50 in data set [8] is 4500 nM; in data set [9] it was 1480 nM; in data set [10], 4300 nM; in data set [11], “Nd(Insoluble)”; in data set [12], 132 nM; in data set [13], more than 10000 nM. Moreover, the values for the IC50 in data set [14], in [15] and in data set [16] were 4400 nM, more than 10000 nM and 4000 nM, respectively. The “inhibition (INH)” value in [5] was “Nd(Insoluble)”.

Regarding `CC[C@H](Nc1nc(N)nc(N)c1C#N)c1nc2cccc(C#CCCCC(=O)N3CCOCC3)c2c(=O)n1-c1ccccc1`, the IC50 in data set [1] is 3.82 nM; in data set [2], 3300 nM; in [3] it was 2400 nM; in data set [4] it was 7.6 nM; in [6] it was 5700 nM; in [7], 509 nM. Moreover, the concentration for half-maximal inhibition (IC50) is 1900 nM in data set [8]; 591 nM in data set [9]; 2000 nM in data set [10]; more than 40000 nM in data set [11] (read-out: IC50); 91.9 nM in data set [12]; 5600 nM in [13]. The IC50 in data set [14] was 1400 nM; in data set [15] it was 4900 nM; in [16], 1600 nM. Besides, the inhibition entry in data set [17], in data set [25], in data set [26] and in data set [27] was “Dose-dependent effect” in each case. In addition, the half-life in data set [18] is 1.46 h; in [29], 1.28 h. For the same molecule, the AUC(0-t) was found to be 938 ng·h/mL in data set [19] and 1050 ng·h/mL in data set [23]. The same molecule registered an AUC(0-inf) in data set [20] of 958 ng·h/mL. This molecule showed an AUC in data set [21] of 1057 ng·h/mL. The molecule further gave a Vd in data set [22] of 0.545 L/kg. The molecule also gave an inhibition at 40 µM in [24] of 34.1%. The molecule also registered a bioavailability in data set [28] of 29.7%. The inhibition entry in data set [30] is “Active”.

`COCCOCCNC(=O)CCCC#Cc1cccc2nc(Cn3nc(-c4cccc(O)c4)c4c(N)ncnc43)n(Cc3ccccc3Cl)c(=O)c12`: the IC50 in data set [31] is 47 nM; in [32], 3 to 12 nM; in data set [33], 1490 nM; in data set [34], 1.1 nM.

With `N#Cc1c(N)ncnc1N1CCC[C@H]1c1nc2cccc(C#CCCCC(=O)N3CCOCC3)c2c(=O)n1-c1ccccc1`, the IC50 in data set [1] is 13.8 nM; in [2], 6000 nM; in [3] it was more than 10000 nM; in data set [4] it was 27.6 nM; in data set [6], more than 10000 nM; in data set [7], 1650 nM. Moreover, the IC50 is 2400 nM in data set [8]; 3110 nM in [9]; 11600 nM in [10]; 31700 nM in data set [11] (read-out: IC50); 291 nM in data set [12]; more than 10000 nM in data set [13]. Also, the results for the IC50 in [14], in data set [15] and in data set [16] were 7200 nM, more than 10000 nM and 3900 nM, respectively. In [24], the inhibition at 40 µM is 61.9%.
